{"source": "patent US10640457B2", "about": "“Histone acetyltransferase activators and uses thereof” (The Trustees of Columbia University in the City of New York, priority 2009, dated 2020)", "key": {"APP/PS1 mice": {"test_system": "APP/PS1 mice", "assay": "RAWM and fear conditioning in APP/PS1 mice (YF2)", "format": "in vivo", "source_text": "Without being bound by theory, given that these experiments were obtained with a synthetic preparation of Aβ42, it is difficult to know if this is the same as Aβ that causes synaptic dysfunction in AD brains. Thus, we validated these experiments in an Aβ-depositing mouse model, the APP/PS1 mouse^[P35] (herein incorporated by reference in its entirety). These mice have been well characterized with respect to AD pathology^[P34-38] (each herein incorporated by reference in its entirety). They start to show synaptic and memory impairment as early as 3 months of age^[P34] (herein incorporated by reference in its entirety). Transgenic mice with a double mutation APP […]/PS1(M146L) (line 6.2) start to develop large plaques in cortex and hippocampus at the age of 8-10 weeks. They have a reduction in LTP by 3 months of age together with impairment of contextual fear memory and spatial working memory."}, "HDAC8": {"target": "T1, HDAC8 (Homo sapiens, UniProt Q9BY41)", "T1 sequence (Q9BY41 1-377)": "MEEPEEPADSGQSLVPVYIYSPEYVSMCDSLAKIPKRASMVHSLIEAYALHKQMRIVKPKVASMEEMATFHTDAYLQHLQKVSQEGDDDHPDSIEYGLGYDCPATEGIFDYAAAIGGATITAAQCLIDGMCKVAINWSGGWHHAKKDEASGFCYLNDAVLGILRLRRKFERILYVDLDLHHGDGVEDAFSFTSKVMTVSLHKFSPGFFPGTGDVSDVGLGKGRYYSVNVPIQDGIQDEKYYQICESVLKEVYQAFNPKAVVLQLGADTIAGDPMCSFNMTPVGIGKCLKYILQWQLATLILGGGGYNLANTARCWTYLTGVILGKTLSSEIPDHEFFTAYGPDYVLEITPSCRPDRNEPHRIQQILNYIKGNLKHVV", "assay": "HDAC8 fluorogenic activity assay", "conditions": "for % Activity: Repeat1/Repeat2, listed as OA2"}, "Sirtuin 2": {"target": "T2, Sirtuin 2 (Homo sapiens, UniProt Q8IXJ6)", "T2 sequence (Q8IXJ6 1-389)": "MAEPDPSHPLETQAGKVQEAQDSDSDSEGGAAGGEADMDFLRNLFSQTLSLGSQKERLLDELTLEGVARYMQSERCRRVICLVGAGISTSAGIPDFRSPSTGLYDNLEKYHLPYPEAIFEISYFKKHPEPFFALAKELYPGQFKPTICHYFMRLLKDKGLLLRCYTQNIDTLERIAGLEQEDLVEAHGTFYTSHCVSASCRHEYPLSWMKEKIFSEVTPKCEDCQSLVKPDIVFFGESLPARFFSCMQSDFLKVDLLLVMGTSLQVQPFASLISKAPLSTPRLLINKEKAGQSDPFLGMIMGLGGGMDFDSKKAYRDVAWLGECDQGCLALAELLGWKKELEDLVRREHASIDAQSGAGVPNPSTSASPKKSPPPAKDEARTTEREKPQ", "assay": "Sirtuin 2 fluorogenic activity assay", "conditions": "for % Activity: Repeat1/Repeat2, listed as OA2"}}, "note": "Where “and” joins values, the source holds several entries; their conditions need not be identical. Equal values may be shown once. Entries after “also recorded” stand apart in the source; their conditions may differ.", "data": [{"smiles": "CCOc1cccc(OCCN(C)C)c1C(=O)Nc1ccc(Cl)c(C(F)(F)F)c1", "note": "[YF2]", "values": [{"measurement": "reference memory defect (RAWM)", "setting": "APP/PS1 mice; APP/PS1 mice, 20 mg/Kg i.p. 30 min before 1st and 2nd group of tests, 20 mg/kg", "result": "ameliorates; also recorded: rescued"}, {"measurement": "contextual fear memory deficit", "setting": "APP/PS1 mice; APP/PS1 mice, 20 mg/Kg i.p. 30 min before training for FC, 20 mg/kg", "result": "ameliorates"}, {"measurement": "memory in WT mice", "setting": "APP/PS1 mice; WT littermates, 20 mg/Kg i.p.", "result": "without affecting"}, {"measurement": "IC50", "setting": "HDAC8", "result": "> 200", "unit": "µM"}, {"measurement": "% Activity", "setting": "HDAC8; OA2 Log[nM] 0.5", "result": "101.88% and 103.15%"}, {"measurement": "% Activity", "setting": "HDAC8; OA2 Log[nM] 1.5", "result": 102.04, "unit": "%"}, {"measurement": "% Activity", "setting": "HDAC8; OA2 Log[nM] 2.0", "result": 108.80, "unit": "%"}, {"measurement": "% Activity", "setting": "HDAC8; OA2 Log[nM] 3.0", "result": 84.45, "unit": "%"}, {"measurement": "% Activity", "setting": "HDAC8; OA2 Log[nM] 3.5", "result": 109.88, "unit": "%"}, {"measurement": "% Activity", "setting": "HDAC8; OA2 Log[nM] 4.5", "result": "85.17% and 86.60%"}, {"measurement": "% Activity", "setting": "HDAC8; OA2 Log[nM] 5.3", "result": "58.33% and 105.63%"}, {"measurement": "IC50", "setting": "Sirtuin 2", "result": "> 200", "unit": "µM"}, {"measurement": "% Activity", "setting": "Sirtuin 2; OA2 Log[nM] 0.5", "result": "97.71% and 101.89%"}, {"measurement": "% Activity", "setting": "Sirtuin 2; OA2 Log[nM] 1.0", "result": "96.21% and 97.38%"}, {"measurement": "% Activity", "setting": "Sirtuin 2; OA2 Log[nM] 1.5", "result": "98.59% and 101.33%"}, {"measurement": "% Activity", "setting": "Sirtuin 2; OA2 Log[nM] 2.0", "result": "94.20% and 99.91%"}, {"measurement": "% Activity", "setting": "Sirtuin 2; OA2 Log[nM] 2.5", "result": "94.74% and 96.43%"}, {"measurement": "% Activity", "setting": "Sirtuin 2; OA2 Log[nM] 3.0", "result": "94.53% and 98.73%"}, {"measurement": "% Activity", "setting": "Sirtuin 2; OA2 Log[nM] 3.5", "result": "96.80% and 98.23%"}, {"measurement": "% Activity", "setting": "Sirtuin 2; OA2 Log[nM] 4.0", "result": "97.71% and 98.83%"}, {"measurement": "% Activity", "setting": "Sirtuin 2; OA2 Log[nM] 4.5", "result": "92.45% and 95.14%"}, {"measurement": "% Activity", "setting": "Sirtuin 2; OA2 Log[nM] 5.3", "result": "98.64% and 99.53%"}]}]}
